Experimental data from PubChem BioAssay AID743233 (The Scripps Research Institute Molecular Screening Center, 2013).
Active and inactive are the calls of the source. The rule behind the calls is not given here.

These compounds were tested on Galpha16-expressing cells, calcium fluorescence, counterscreen (assay: nonselective Ga16 antagonists, potency, late-stage follow-up, counter-screen for TAAR1 agonist project, cell-based, fluorescence, dose response (AID 743233)).

How did the IC50 turn out when `CCOC(=O)C(NC(=O)CC)(N1CCc2ccccc2C1)C(F)(F)F` (stereo unspecified) was run?
Its IC50 is > 29.9 µM (inactive).

`CCOC(=O)C(NC(C)=O)(N1CCc2ccccc2C1)C(F)(F)F` (stereo unspecified) was tested. Which IC50 did it give?
The IC50 was > 29.9 µM (inactive).

How did the IC50 turn out when `Cc1[nH]c2ccccc2c1CN1CCc2ccccc2C1` was run?
The IC50 was > 29.9 µM (inactive).

How did the IC50 turn out when `NCc1c(O)ccc2ccccc12` was run?
The IC50 was > 29.9 µM (inactive).

`O=C(CCCCl)N1CCc2[nH]c3ccccc3c2C1` was tested. Which IC50 did it give?
The IC50 was > 29.9 µM (inactive).

With `CC(=NCCc1ccccc1)C1CCOC1=O` (stereo unspecified) as the compound, how does the IC50 read?
The IC50 was > 29.9 µM (inactive).

For `CC(=C1C(=O)c2ccccc2C1=O)N1CCc2ccccc2C1`, which IC50 is on record?
Its IC50 is > 29.9 µM (inactive).

With `Nc1nc(Nc2ccccc2)nc2ccccc12` as the compound, how does the IC50 read?
Its IC50 is > 29.9 µM (inactive).

With `OCCNc1nc(Nc2ccc(O)cc2)nc2ccccc12` as the compound, how does the IC50 read?
Its IC50 is > 29.9 µM (inactive).

With `CC1(C)CCCN(C(=O)c2coc(=O)c(Br)c2)C1` as the compound, how does the IC50 read?
The IC50 was > 29.9 µM (inactive).

For `COc1cc(C(=O)CCN2CCC(c3ccccc3)C2)cc(OC)c1OC` (stereo unspecified), which IC50 is on record?
Its IC50 is > 29.9 µM (inactive).

How did the IC50 turn out when `Cc1cc(C)n(C(CC(=O)N2CCc3ccccc3C2)C(=O)O)n1` (stereo unspecified) was run?
The IC50 was > 29.9 µM (inactive).

With `O=C(Nc1ccncc1)Nc1ccc(F)cc1` as the compound, how does the IC50 read?
The IC50 was > 29.9 µM (inactive).

How did the IC50 turn out when `c1ccc(CCn2nnnc2C(c2cccs2)N2CCN(Cc3ccc4c(c3)OCO4)CC2)cc1` (stereo unspecified) was run?
The IC50 was > 29.9 µM (inactive).

With `O=C(Nc1cccnc1)Nc1cccc(F)c1` as the compound, how does the IC50 read?
The IC50 was > 29.9 µM (inactive).

Which IC50 does the source give for `NC(N)=Nc1cc2ccccc2c2ccccc12` here?
The IC50 was > 29.9 µM (inactive).

Which IC50 does the source give for `O=C(CCN1CCc2ccccc2CC1)c1ccc2c(c1)OCCO2` here?
Its IC50 is > 29.9 µM (inactive).

For `Nc1nc(Nc2cccc(F)c2)nc2ccccc12`, which IC50 is on record?
The IC50 was > 29.9 µM (inactive).

`c1ccc(CCN2CN(CCCN3CCOCC3)c3nc4ccccc4n3C2)cc1` was tested. Which IC50 did it give?
The IC50 was > 29.9 µM (inactive).

`O=C(Nc1cccc2ccccc12)N1CCc2ccccc2C1` was tested. Which IC50 did it give?
The IC50 was > 29.9 µM (inactive).

How did the IC50 turn out when `c1ccc2c(c1)CCN(c1nc3cc4c(cc3s1)OCO4)C2` was run?
The IC50 was > 29.9 µM (inactive).

Which IC50 does the source give for `O=c1[nH]cc(NCCc2ccccc2)c(=O)[nH]1` here?
The IC50 was > 29.9 µM (inactive).

With `Cc1ccc(NC(=O)CCN2CCc3ccccc3C2)cc1` as the compound, how does the IC50 read?
Its IC50 is > 29.9 µM (inactive).

With `Cc1cc(N(C)C)nc(Nc2ccccc2)n1` as the compound, how does the IC50 read?
Its IC50 is > 29.9 µM (inactive).

For `c1ccc2c3c([nH]c2c1)CCNC3`, which IC50 is on record?
Its IC50 is > 29.9 µM (inactive).

How did the IC50 turn out when `NC(N)=NN=Cc1c(Cl)cccc1Cl` was run?
Its IC50 is > 29.9 µM (inactive).

`O=C(Nc1ccccc1)Nc1ccncc1` was tested. Which IC50 did it give?
The IC50 was > 29.9 µM (inactive).

How did the IC50 turn out when `OCCNc1nc(Nc2cccc(O)c2)nc2ccccc12` was run?
Its IC50 is > 29.9 µM (inactive).

How did the IC50 turn out when `O=C(CCN1CCC(c2ccccc2)C1)c1cccs1` (stereo unspecified) was run?
Its IC50 is > 29.9 µM (inactive).

For `O=C(C(=O)N1CCc2ccccc2C1)c1cn(CC(=O)N2CCCCC2)c2ccccc12`, which IC50 is on record?
Its IC50 is > 29.9 µM (inactive).

`O=C(CCN1CCC(c2ccccc2)C1)c1ccc2c(c1)OCCO2` (stereo unspecified) was tested. Which IC50 did it give?
Its IC50 is > 29.9 µM (inactive).
